Data on 1 compound can be found in patent US20160199434A1, “COMPOSITIONS AND METHODS FOR MODULATING DNA METHYLATION” (OHIO STATE INNOVATION FOUNDATION, priority 2013, published 2016).

“And” between values parts separate entries of the source, which are not always exact repeats. Equal entries are not always repeated.

The test system of assay [1] is 23 different gene promoters. The assay can be described thus: Percent methylation of 23 gene promoters in H1703 squamous cell carcinoma. It counts as cell-based, human. To be noted: H1703, 10 μM and 50 μM, compared to DMSO. The method, then:
FIGS. 11A-11D show the percent methylation for 23 different gene promoters in two types of human lung cancer cells—FIGS. 11A and 11B are directed at H1703 squamous cell carcinoma and FIG. 11C and FIG. 11D are directed at A549 adenocarcinoma. DMSO was used as a vehicle and was used as a control. […] The Dec/PBA condition represents a combination of 5 μM Decitabine (5-aza-2′deoxycytidine (5-AZA), which is a demethylating agent) and 2 mM […] (PBA, HDAC inhibitor). In all promoters tested, and in both types of lung cancer, AKB-6899 demethylated the gene promoters such that the level of % DNA methylation following AKB-6899 treatment was below the level of % DNA methylation of the DMSO-treated control cells (DMSO).

The test system of assay [2] is DNMT-3b. The assay can be described thus: DNMT-3b transcription in A549 lung cancer cells. To be noted: A549 cells (FIG. 10B). It counts as cell-based, human. The text has this: In FIG. 10A, AKB-6899 inhibited DNMT-1, DNMT-3a, and DNMT-3b transcription in a dose-dependent manner in human squamous cell carcinoma lung cancer cells (H1703), in vitro. The DMSO-treated DNMT mRNAs are over 1.0, meaning the level of expression is higher than the housekeeping control gene, CAP1. In FIG. 10B, AKB-6899 inhibited DNMT-3a and DNMT-3b transcription in human adenocarcinoma lung cancer cells (A549). The DMSO-treated DNMT mRNAs are under 1.0, meaning the level of expression is lower than the housekeeping control gene, CAP1.

For assay [3], the system named is panel of 14 common tumor suppressor genes. The assay can be described thus: mRNA expression of 14 tumor suppressor genes in A549 cells. Type of assay: cell-based, human. To be noted: for CDKN1C mRNA expression level: DMSO standardized to 1.0. The source says: FIGS. 12A-12D show the level of mRNA expression for a panel of 14 common tumor suppressor genes in two types of human lung cancer cells (i.e., H1703 squamous cell carcinoma in FIG. 12A and A549 adenocarcinoma in FIG. 12B). […] All of the tumor suppressor mRNAs were augmented in response to AKB-6899 but one, the CDKN1C gene in A549 adenocarcinoma cells, in which expression levels were 0.1 (AKB10) and 0.9 (AKB50) compared to DMSO standardized to 1.0. In FIGS. 12A-12B, the following apply: “1”=DMSO, “2”=AKB-6899 (10 μM), “3”=AKB-6899 (50 μM), and “4”=combination of Decitabine (5 μM)/PBA (2 mM). FIGS. 12C and 12D are raw values for mRNA expression of these 14 genes.

The test system of assay [4] is H1703 squamous cell carcinoma. In words: XTT cell survival assay, H1703 lung cancer cells. It counts as cell-based, human. Particulars: H1703, increasing doses (FIG. 13B). The text has this: FIGS. 13A-13B show XTT cell survival assays for normal lung epithelial cells (BEAS-2B) and lung cancer cells (H1703 squamous cell carcinoma and A549 adenocarcinoma) in response to increasing doses of AKB-6899.
On the technique in general: Formazan colour is commonly taken as a measure of viable cells.

For a further assay, the system named is RASSF1 promoter. The assay can be described thus: CpG methylation of RASSF1 promoter in lungs of normal mice. It counts as in vivo, mouse. Particulars: i.p., three weeks (FIG. 14B). The protocol: FIGS. 14A-14C show the effects of systemic administration of AKB-6899. Mice were treated three times per week for three weeks with either i.p. AKB-6899 or i.p. DMSO. The lungs were removed and assayed to determine DNMT mRNA expression, percent CpG methylation, and fold change in mRNA. […] The data was standardized to 1.0 by the DMSO levels of the respective gene expression, (n=4 lungs per condition).

For another assay, the system named is desmoplakin (DSP) mRNA. The assay can be described thus: Desmoplakin mRNA expression in PyMT tumors of tumor-bearing mice. Type of assay: in vivo, mouse. The source says: FIGS. 4A-4B show desmoplakin mRNA expression in vitro and in vivo.
Desmoplakin (DSP) is the major protein component of the desmosome located in the inner membrane of epithelial cells where it binds desmosomal cadherins to maintain cell-to-cell adhesion. DSP is regulated by ER/PR expression (Maynadier et al. 2012; Ahmed et al., 1995; Pang et al., 2004). Clinically, expression of DSP is higher in normal mammary epithelium. Loss of DSP correlates with less differentiated breast tumors and increased lymph node involvement. […] Functional desmoplakin that is incorporated into the desmosome is not phosphorylated at serine 165/166. Phosphorylation at ser165/166 by protein kinase C (PKC) causes desmoplakin to disassemble from the desmosome. The loss of desmosome function and decreased adherence junctions are markers that can inform tumor staging, prognosis, and treatment planning as this transition eliminates therapeutic effectiveness and increases the likelihood of poor clinical outcome (Dusek et al., 2011). Further, loss of DSP is a marker in the Epithelial-to-Mesenchymal Transition (EMT) process as it binds to adherence proteins that also translocate to the nucleus and activate the Wnt/β-catenin pathway (Yang et al., 2012).
The gene expression signatures from the tumors of PyMT breast tumor-bearing mice that were treated with either vehicle or AKB-6899 were evaluated. […]

For assay [5], the system named is DNMT-3b. The assay can be described thus: DNMT-3b mRNA level by RT-PCR in PyMT tumor cells. Type of assay: cell-based, mouse. Particulars: PyMT tumor cells in culture. The method, then: Because DSP is regulated by ER/PR expression, and because late-stage PyMT tumors lose ER/PR-positivity and heavily metastasize to the lymph nodes and lungs (Lin et al., 2003), the effects of AKB-6899 on more global events that regulate gene expression was evaluated. PyMT tumor cells in culture were treated with DMSO or AKB-6899. Methylation-specific PCR for CpG islands in the desmoplakin promoter were performed. […] Trypan Blue confirmed no cell death in AKB-6899 treated cells when compared to control cells. The experiment was repeated and RNA was isolated from the cells. RT-PCR was performed and the regulation of DNA methyltransferases (DNMTs) was evaluated. […] (FIG. 1A). The decrease in mRNA levels of DNMT-1 and DNMT-3a increased the mRNA level of DSP (FIG. 4A) and increased desmoplakin protein expression (FIG. 5A).

Turning to `O=C(O)CNC(=O)c1ncc(-c2cccc(F)c2)cc1O` [AKB-6899, {[5-(3-Fluorophenyl)-3-hydroxypyridine-2-carbonyl]amino}acetic acid], the “percent DNA methylation of 23 gene promoters” value in assay [1] was “decreased the percent of DNA methylation in a dose response fashion”. Also, in the assay with DNMT-3b [2], the DNMT-3b transcription entry is reported as “inhibited”. Also, the “CDKN1C mRNA expression level” value in assay [3] (A549, 10 μM (AKB10)) was 0.1; in assay [3] (A549, 50 μM (AKB50)) it was 0.9. In assay [3] (A549, 10 μM and 50 μM, vs DMSO, all genes but CDKN1C), the “tumor suppressor mRNA expression” value was “augmented”. In addition, the “cell survival / toxicity” value in assay [4] is on record as “pronounced toxicity”. Also, in the assay on RASSF1 promoter, the “methylation of RASSF1 promoter in lungs” value was “demethylated”. Also, the “increase in DSP mRNA expression” value with desmoplakin (DSP) mRNA (PyMT breast tumor-bearing mice, 17.5 mg/kg, vs DMSO/vehicle animals, 17.5 mg/kg) is ~118 fold and 118.5 fold. In the assay with desmoplakin (DSP) mRNA (in vivo, compared to vehicle (FIG. 4B)), the “desmoplakin expression from PyMT tumors (in words)” value is recorded as “significantly increased”. In the assay with DNMT-3b [5], the “DNMT-3b mRNA level” value is “no difference”.
